Test results as given in PMC9181987, “Disclosing the Potential of Fluorinated Ionic Liquids as Interferon-Alpha 2b Delivery Systems” (Nanomaterials, 2022).

Assays:
IFN-α 2b [1] = target: T1, IFN-α 2b (Homo sapiens, UniProt P01563); assay: Microscale thermophoresis (MST) binding affinity of FILs with labelled IFN-α 2b; conditions: for Kd: labelled IFN-α 2b 2.7 μM, 5 mM NaH2PO4 pH 7.4, 25 °C, ± = Kd confidence of the fitting
T1 construct: purchased Sigma-Aldrich SRP4595; host or cells: E. coli
Experimental: Several dilution series of 16 samples of 20 μL were prepared in triplicate for each studied system. All the solutions were prepared in the buffer of the protein, 5 mM of NaH2PO4 (pH = 7.4), and PCR tubes. In the first tube (1 out 16) 20 μL of FIL stock solution was added at twofold the maximum concentration defined for each assay. In the remaining 15 tubes, 10 μL of buffer was added, followed by the series dilution of the FIL. […] The selected concentrations cover the range where the distinct CACs are formed in each FIL. The excitation power was determined by a pre-test and set to 20% whereas the MST power was set to medium (standard). The assays were executed in standard capillaries and triplicates. The results were processed using the MO.Affinity Analysis v2.3 software (NanoTemper Technologies, Munich, Germany).
In the process of labelling, commonly, one amine per protein is labelled, statistically distributing the position of the dye. […] As explained in the experimental section, in each run of MST, a maximum concentration is chosen and is consecutively diluted in 16 capillaries.

IFN-α 2b [2] = target: T1, IFN-α 2b; assay: Intrinsic fluorescence spectroscopy of IFN-α 2b with FILs (λmax shift, Stern–Volmer quenching); format: binding
Experimental: The concentrations were chosen to cover the range where the different aggregates of the FILs are formed. Samples, equilibrated for 30 min at room temperature, and 400 μL of each solution were transferred to a quartz cuvette of 10 mm pathlength and excited at 280 nm, collecting the fluorescence intensity in a wavelength range of 300 to 450 nm. The width of the excitation and emission slit was set to 5 nm for both cases. The spectra of FIL solutions (blanks) were discounted to the spectra of FIL + protein samples to avoid any possible effect of FIL concentration increment in the fluorescence intensity.
A very well-known equation, the Stern–Volmer, was used to characterize the quenching occurring in this region. This equation characterizes the collisional quenching that can occur when the excited state of the fluorophore is disabled due to contact with another molecule (quencher), without chemical alteration. Therefore, the collisional quenching is described by:(11) F0/F=1+K[Q]=1+kqτ0[Q] where F0 and F are the fluorescence intensities of the fluorophore in the absence and presence of the quencher, respectively, K is the Stern–Volmer quenching constant, kq is the biomolecular quenching constant, τ0 is the unquenched lifetime, and [Q] is the quencher concentration. […] This value gives information on the sensitivity of the fluorophore to a quencher.

[3] = cited from earlier work
[4] = Dynamic light scattering: aggregate size and polydispersity index; format: physicochemical; conditions: 150 mM NaH2PO4, 25°C
Experimental: These concentrations were chosen to comprise two different aggregates of each FIL, above the 1st CAC and the 3rd CAC. […] Therefore, 20 μL was transferred into a quartz cell of 10 mm pathlength and measured at 25 °C.
Moreover, the polydispersity index (PdI) was obtained by DLS which determines the heterogeneity of the sample in the function of the size.

[5] = design: method as in doi:10.5772/INTECHOPEN.96336, doi:10.1016/j.molliq.2022.119285, PMID 25580898; conditions: cited from earlier work

T1 sequence (P01563 24-188): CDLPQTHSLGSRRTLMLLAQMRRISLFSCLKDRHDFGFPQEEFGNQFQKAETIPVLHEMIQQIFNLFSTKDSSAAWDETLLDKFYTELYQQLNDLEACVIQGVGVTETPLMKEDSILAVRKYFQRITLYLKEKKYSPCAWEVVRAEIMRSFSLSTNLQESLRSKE

Row | SMILES | Kd (IFN-α 2b [1]; assay 70 − 2.1 × 10^−3 mM FIL) [mM] | Kd (IFN-α 2b [1]; assay 375 − 1.1 × 10^−2 mM FIL) [mM] | Stern–Volmer quenching constant K (IFN-α 2b [2]; IFN-α 2b 20 μg/mL, region ~14 mM to ~110 mM FIL, 5 mM NaH2PO4 pH 7.4, excitation 280 nm) [mM⁻¹] | red shift of λmax (IFN-α 2b [2]; concentration close to the 3rd CAC, IFN-α 2b 20 μg/mL) [nm] | red shift of λmax (IFN-α 2b [2]; concentrations above 384 mM, IFN-α 2b 20 μg/mL) | biomolecular quenching constant kq (IFN-α 2b [2]; from K and τ0 of IFN-α 2b) [M⁻¹ s⁻¹] | binding to IFN-α 2b (MST) (IFN-α 2b [1]; four runs, maximum concentrations 15, 35, 70, 375 mM) | toxicity [3] | Polydispersity index (PdI) ([4]; 29.8 mM FIL) | Polydispersity index (PdI) ([4]; 248.0 mM FIL) | miscibility in water [5]
1 | O=S(=O)(O)C(F)(F)C(F)(F)C(F)(F)C(F)(F)F [[N1112(OH)][C4F9SO3], (2-Hydroxyethyl)trimethylammonium perfluorobutanesulfonate] | 0.000597 | 54.7 ± 36.9 | – | – | – | – | – | – | – | – | –
2 | C[N+](C)(C)CCO.O=S(=O)([O-])C(F)(F)C(F)(F)C(F)(F)C(F)(F)F [[N1112(OH)][C4F9SO3], (2-Hydroxyethyl)trimethylammonium perfluorobutanesulfonate] | – | – | 0.00195 | 3 | up to 8 nm | 6.61e+08 | binding only occurs for the runs where concentrations were above the 2nd and 3rd CAC | negligible toxicity | 0.784 | 0.543 | full miscibility in water
